Where “and” joins values, the source holds several entries; their conditions need not be identical. Identical values can stand only once.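 Results reflect a 48-hour exposure of cells in 96-well plates to compound at five concentrations. At the GI50, growth is halved. Definition used: TGI = concentration required for complete inhibition of growth.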
Assays:
Assay in all cases: NCI anticancer screen, dose series, 48 h
[1] = tested on: A498 renal
[2] = tested on: CCRF-CEM leukemia
[3] = tested on: COLO 205 colon
[4] = tested on: HCC-2998 colon
[5] = tested on: HCT-15 colon
[6] = tested on: NCI-H23 lung
[7] = tested on: NCI-H460 lung
[8] = tested on: OVCAR-5 ovarian
[9] = tested on: UACC-62 melanoma
[10] = tested on: XF 498 CNS

Compound	TGI [1]	TGI [2]	TGI [3] [µM]	TGI [4]	TGI [5]	TGI [6]	TGI [7]	TGI [8]	TGI [9]	TGI [10]	GI50 [1] [µM]	GI50 [2]	GI50 [3] [nM]	GI50 [5] [nM]	GI50 [6] [µM]	GI50 [7] [nM]	GI50 [8] [µM]	GI50 [9] [µM]	GI50 [10]	GI50 [4] [µM]
CC1OC(OCC2OC(Oc3c(-c4ccc(O)cc4)oc4cc(O)cc(O)c4c3=O)C(OC3OC(C)C(O)C(O)C3O)C(O)C2O)C(O)C(O)C1O (stereo unspecified)	> 100 µM	> 83.5 µM	> 72.7	> 100 µM	> 56.8 µM	> 100 µM	> 100 µM	> 100 µM	> 100 µM	> 100 µM										
CN(C)c1ccc([O-])cc1.CN(C)c1ccc([O-])cc1.CN(C)c1ccc([O-])cc1.CN(C)c1ccc([O-])cc1.[Ti+4]	> 100 µM	> 100 µM	> 100		> 100 µM	> 100 µM	> 100 µM	> 100 µM	> 100 µM	> 100 µM	19.4	43700 nM	85300	> 100000	> 100	37400	> 100	> 100	> 100000 nM	
O=C(O)COc1ccc(O)c2c1C(=O)CCCC2=O	> 100 µM	> 100 µM	> 100	> 100 µM	> 100 µM	> 100 µM	> 100 µM	> 100 µM	> 100 µM	> 100 µM										
COc1cc(/C=C\c2ccccc2)cc(OC)c1OC	> 41.1 µM	49.8 µM	> 20.4	48.5 µM	36 µM	19.5 µM	27.3 µM	47.3 µM	41.2 µM	23.7 µM										
C=C(CCCCCCCCC)CC(=O)SCCNC(=O)CCNC(=O)C(O)C(C)(C)COP(=O)(O)OP(=O)(O)OCC1OC(n2cnc3c(N)ncnc32)C(O)C1OP(=O)(O)O (stereo unspecified)	> 100 µM	> 100 µM	> 100	> 100 µM	> 100 µM	> 100 µM	> 100 µM	> 100 µM	46.1 µM	> 100 µM										
CC1CC#CCOC(=O)CCCC1=O (stereo unspecified)		> 100 µM	> 100	> 100 µM		> 100 µM	> 100 µM		> 100 µM	> 100 µM										
Oc1cc(O)c(Oc2cccc(O)c2O)c(O)c1	> 100 µM	> 100 µM	> 100	> 100 µM	> 100 µM	> 100 µM	> 100 µM	> 100 µM	> 100 µM	> 100 µM										
O=Cc1ccccc1OCCOc1cc(OCCOc2ccccc2C=O)c(OCCOc2ccccc2C=O)cc1OCCOc1ccccc1C=O	> 100 µM	> 100 µM	> 100	> 100 µM	> 100 µM	> 100 µM	> 100 µM	> 100 µM	> 100 µM	> 71.5 µM										
CCOC(=O)C1(Br)C(c2ccccc2)NC(=O)NC1(C)Br (stereo unspecified)	> 100 µM	99.8 µM	> 100	> 100 µM	> 100 µM	> 100 µM	> 100 µM	> 100 µM	> 100 µM	> 100 µM										
CC1CC2CC(=O)CC3(C1)C2CCCN3CCCO (stereo unspecified)	> 100 µM	> 100 µM	> 100			> 100 µM	> 100 µM	> 100 µM	> 100 µM	> 100 µM										
COC1=CC(=O)C2C(C1=O)[C@@H]1c3ccccc3C[C@H]21 (stereo partly specified)	> 100 µM	> 100 µM	> 100	> 100 µM	> 100 µM	> 100 µM	> 100 µM	> 100 µM	> 100 µM	> 100 µM										
OCCCOC(c1ccccc1)(c1ccccc1)c1ccccc1		> 100 µM	> 100	> 100 µM	> 100 µM	> 100 µM	> 100 µM	> 100 µM	> 100 µM	> 100 µM										
COC[C@@H](N=CN1CCc2cc(OC)c(OC)cc2[C@@H]1C)C(C)(C)C		> 100 µM	> 100		> 100 µM	> 100 µM	> 100 µM		> 100 µM	> 100 µM										
COc1ccccc1/C=C1\CCC(CCN(C)C)(C2=CCCC2)C1=O (stereo unspecified)	32.1 µM	51.6 µM	22.1	31.9 µM	61.8 µM	> 100 µM	31.4 µM	82.5 µM	23.5 µM	31.7 µM										
O=C(/C=C/c1ccccc1)CC1OC(=O)c2ccccc21 (stereo unspecified)	> 100 µM	> 100 µM	> 100	> 100 µM	> 100 µM	> 100 µM	> 100 µM	> 100 µM	66.5 µM	> 100 µM										
Clc1ccc(Cc2nc3ccccc3s2)c(Cl)c1	41.5 µM	22.7 µM	31.5	33.4 µM	36.5 µM		41.4 µM	38.7 µM	28.9 µM	26.5 µM										

Compound	TGI [1]	TGI [2]	TGI [3] [µM]	TGI [4]	TGI [5]	TGI [6]	TGI [7]	TGI [8]	TGI [9]	TGI [10]	GI50 [1] [µM]	GI50 [2]	GI50 [3] [nM]	GI50 [5] [nM]	GI50 [6] [µM]	GI50 [7] [nM]	GI50 [8] [µM]	GI50 [9] [µM]	GI50 [10]	GI50 [4] [µM]
CC(=O)Nc1ccc(C(=O)NN2C(=O)C(Cl)C2c2ccc([N+](=O)[O-])cc2)cc1 (stereo unspecified)	> 100 µM	> 100 µM	> 100		> 100 µM	> 100 µM	> 100 µM	> 100 µM	> 100 µM	> 100 µM										
CCCNCCCC(NC(C)=O)C(=O)NCc1ccccc1 (stereo unspecified)	> 100 µM	> 100 µM	> 100	> 100 µM	> 100 µM	> 100 µM	> 100 µM	> 100 µM	> 100 µM	> 100 µM										
CC12N=NN(c3ccc([N+](=O)[O-])cc3)C1(O)c1ccccc1C2=O (stereo unspecified)			> 100	> 100 µM	> 100 µM	> 100 µM	> 100 µM		> 100 µM	> 100 µM										
C=CC1[C@H]2COC(C)(C)O[C@@H]2CC(=O)C1(C)C (stereo partly specified)			> 100	> 100 µM		> 100 µM	> 100 µM	> 100 µM		> 100 µM										
CCc1cccc(C(C)C)c1NC(=O)C(=O)CC(=O)c1c(C)n([O-])c2ccccc2[n+]1=O	> 100 µM	> 100 µM	> 100	> 100 µM	> 100 µM	> 100 µM	> 100 µM	> 100 µM	> 100 µM	> 100 µM										
CC(C)C1(O)C(c2ccccc2)=C(c2ccccc2)C(c2ccccc2)=C1c1ccccc1	56.3 µM	> 100 µM	21.7	30.4 µM	46.8 µM	91.3 µM	46.8 µM	> 100 µM	20.9 µM	14.2 µM										
CC[C@@]1(O)C[C@H](OC2CC(N(C)C)C(OC3CC(O)C(OC4CCC(=O)C(C)O4)C(C)O3)C(C)O2)c2c(cc3c(c2O)C(=O)c2c(O)cccc2C3=O)[C@H]1C(=O)OC (stereo partly specified)	0.0539 µM and 0.0599 µM	0.7 µM and 2.69 µM		0.0746 µM and 0.351 µM	0.436 µM and 0.826 µM	0.12 µM and 0.125 µM	0.06 µM and 0.0662 µM	0.22 µM and 0.457 µM	0.0491 µM and 0.115 µM	0.165 µM and 0.0552 µM		7.79 nM and 2.2 nM							6.81 nM and 28.2 nM and 23.6 nM	
CS(=O)(=O)OCCN1CCN(C(=O)c2cccc3c(Nc4ccc(S(=O)(=O)N=C(N)N)cc4)c4ccccc4nc23)CC1	> 100 µM	> 100 µM	> 100	> 100 µM	> 100 µM	> 100 µM	> 100 µM	> 100 µM	> 100 µM	> 100 µM										
COc1ccccc1N=C(N)N/N=C/c1c[nH]c2ccccc12		31.2 µM	3.32	6.27 µM	15.7 µM	19.2 µM	22.8 µM	26.9 µM	27 µM	16.9 µM										
O=C(Nc1cccc([N+](=O)[O-])c1)C(=O)C(C(=O)c1ccccc1-c1ccccc1)C1OC(=O)c2ccccc21 (stereo unspecified)	60.2 µM	99 µM	38.1	30.5 µM		30.1 µM	88 µM	39.5 µM	45.7 µM	41.4 µM										
Cn1nc(-c2ccccc2)c(C(=O)/C=C/c2ccc(F)cc2)c(N2CCCCC2)c1=O		6.46 µM	14.1		> 100 µM		18.1 µM		30 µM	60.2 µM										
Cc1ccc(/C(=N\N=C(N)N)c2ccccc2)cc1	1.02 µM	> 100 µM	0.714	0.677 µM	11.5 µM	9.98 µM	3.19 µM	18.3 µM	15.8 µM		0.272	689 nM	282	371	0.597	330	0.83	0.438		0.241
C=C1SC(=Nc2c(C)cc(C)cc2C)N(C(=O)c2sc3ccccc3c2Cl)C12CCCCC2	> 100 µM	> 100 µM	> 100	> 100 µM	> 100 µM	> 100 µM	> 100 µM	> 100 µM	> 100 µM		> 100	62400 nM	> 100000	> 100000	37.4	> 100000	> 100	78.5		44.7
CCCCC1CC(c2cccc([N+](=O)[O-])c2)=NO1 (stereo unspecified)	> 100 µM	> 100 µM	> 100	> 100 µM	> 100 µM	> 100 µM	> 100 µM	> 100 µM	> 100 µM											
O=C(/C=C/C12c3ccccc3C(c3ccccc31)C1C(=O)N(c3ccccc3)C(=O)C12)c1ccccc1 (stereo unspecified)	2.2 µM	> 100 µM	4.85	3.62 µM	10.6 µM	18.1 µM	4.69 µM	5.02 µM	4.94 µM		0.763	1450 nM	2110	1600	2.69	1920	1.91	1.66		1.75
C[C@H](NC(=O)[C@@H]1CSSC[C@@H](NC(=O)c2nc3ccccc3cc2O)C(=O)NCC(=O)N1C)c1ccccc1	33.5 µM	10.5 µM	2.34	17.1 µM	9.62 µM	12.6 µM	7.98 µM	12.1 µM	13.2 µM		15	1890 nM	963	2550	5.14	1250	4.35	5.6		7.48

— PubChem BioAssay (NCI)
